Tests used:
[1] = target: T1, SYK (Homo sapiens, UniProt P43405); assay: Kinase inhibition assay: SYK; type: biochemical; details: at 1 μM concentration
T1 construct: Purified full-length human SYK, ZAP70, PIM1, PYK2; purchased Carna Biosciences

[2] = target: T2, FAK (Homo sapiens, UniProt Q05397); assay: Kinase inhibition assay: FAK; type: biochemical; details: at 1 μM concentration
T2 construct: truncated human FAK, RET, FLT3, JAK2, and LRRK2; purchased Carna Biosciences
Method: Compounds of the present invention were tested for their capacity to inhibit a kinase panel which includes, but are not limited to, spleen tyrosine kinase (SYK), zeta-chain-associated protein kinase 70 (ZAP70), PTK2B protein tyrosine kinase 2 (PYK2), focal adhesion kinase (FAK), provirus integration of maloney kinase 1 (PIM1), rearranged during transfection kinase (RET), Fms-like tyrosine kinase 3 (FLT3), Janus kinase 2 (JAK2), and leucine-rich repeat kinase 2 (LRRK2).
Inhibition of SYK, ZAP70, PYK2, FAK, PIM1, RET, FLT3, JAK2 and LRRK2 Kinase Activity
Compounds of the invention were initially diluted to 10 mM in 100% DMSO (CALBIOCHEM™) for storage and made into kinase buffer solution to create a compound concentration ranging from 1 uM and 10 uM. Serial dilutions of compounds of the invention were dispensed into a 96-well plate (GREINER BIOSCIENCES™) at 6 μL each. Purified full-length human SYK, ZAP70, PIM1, PYK2 and truncated human FAK, RET, FLT3, JAK2, and LRRK2 (CARNA BIOSCIENCES™) were diluted in kinase buffer and added to the compound solutions and pre-incubated for 30 minutes at room temperature (1 hour for PYK2). […] The reaction mixture was incubated for 1 hour (2 hours for PYK2). Following the incubation, the stop solution made with EDTA, water, and Lance detection buffer ([…]™) was added (12μL each) to stop phosphorylation. […] The IC50 value of test compound was calculated at Gradpad Prism 5 unless specified otherwise.

[3] = target: T3, FLT3 (Homo sapiens, UniProt P36888); assay: Kinase inhibition assay: FLT3; type: biochemical
T3 construct: truncated human FAK, RET, FLT3, JAK2, and LRRK2; purchased Carna Biosciences
T3 sequence (P36888 564-993 limits assumed): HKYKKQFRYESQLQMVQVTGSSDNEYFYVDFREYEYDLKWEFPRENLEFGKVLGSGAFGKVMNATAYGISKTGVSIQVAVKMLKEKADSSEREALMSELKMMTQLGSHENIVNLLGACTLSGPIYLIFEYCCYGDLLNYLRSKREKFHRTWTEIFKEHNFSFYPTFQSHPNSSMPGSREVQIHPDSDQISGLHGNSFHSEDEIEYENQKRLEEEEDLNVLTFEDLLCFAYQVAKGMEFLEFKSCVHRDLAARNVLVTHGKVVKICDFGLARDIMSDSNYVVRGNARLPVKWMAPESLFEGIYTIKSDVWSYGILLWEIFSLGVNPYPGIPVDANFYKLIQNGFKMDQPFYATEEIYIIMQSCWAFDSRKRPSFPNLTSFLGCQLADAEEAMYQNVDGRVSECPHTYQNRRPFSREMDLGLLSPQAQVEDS

[4] = target: T4, RET (Homo sapiens, UniProt P07949); assay: Kinase inhibition assay: RET; type: biochemical
T4 construct: truncated human FAK, RET, FLT3, JAK2, and LRRK2; purchased Carna Biosciences
T4 sequence (P07949 658-1114 limits assumed): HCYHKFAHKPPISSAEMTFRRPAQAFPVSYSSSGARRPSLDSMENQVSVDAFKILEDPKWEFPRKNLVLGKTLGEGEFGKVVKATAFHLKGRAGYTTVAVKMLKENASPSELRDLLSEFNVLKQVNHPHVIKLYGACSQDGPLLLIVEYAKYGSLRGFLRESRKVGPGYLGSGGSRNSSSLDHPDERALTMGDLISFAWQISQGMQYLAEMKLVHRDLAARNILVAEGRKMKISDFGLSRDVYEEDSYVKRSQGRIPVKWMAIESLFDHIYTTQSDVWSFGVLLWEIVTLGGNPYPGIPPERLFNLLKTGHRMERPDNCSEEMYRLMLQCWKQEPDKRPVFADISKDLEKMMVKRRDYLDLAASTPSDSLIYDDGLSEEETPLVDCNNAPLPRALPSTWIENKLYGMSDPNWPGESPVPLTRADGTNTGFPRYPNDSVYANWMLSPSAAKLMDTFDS

[5] = target: T5, FLT3 (Homo sapiens, UniProt P36888); assay: In vitro kinase inhibition profile (Ambit Biosciences); type: binding; details: reported as percent control, lower numbers indicate stronger activities
T5 construct: purchased Ambit Biosciences
Method: (§1) Up to 518 different kinases have been identified in humans. To determine the scope of inhibitory effects of a representative compound of Formula (I) on known kinases, Compound 82 was tested against 104 commercially available kinases (Ambit Biosciences™). 104 kinases included ABL1(E255K)-phosphorylated, ABL1(T315I)-phosphorylated, ABL1-phosphorylated, ACVR1B, ADCK3, AKT1, AKT2, ALK, AURKA, AURKB, AXL, BMPR2, BRAF, BRAF(V600E), BTK, CDK11, CDK2, CDK3, CDK7, CDK9, CHEK1, CSF1R, CSNK1D, CSNK1G2, DCAMKL1, DYRK1B, EGFR, EGFR(L858R), EPHA2, ERBB2, ERBB4, ERK1, FAK, FGFR2, FGFR3, FLT1, FLT3, FLT4, GSK3B, IGF1R, IKK-α, IKK-β, INSR, JAK2(JH1domain-catalytic), JAK3 (JH1 domain-catalytic), JNK 1, JNK2, JNK3, KIT, KIT(D816V), KIT(V559D,T6701), LKB1, LRRK2, LRRK2(G2019S), MAP3K4, MAPKAPK2, MARKS, MEK1, MEK2, MET, MKNK1, MKNK2, MLK1, MTOR, p38-alpha, p38-beta, PAK1, PAK2, PAK-4, PCTK1, PDGFRA, PDGFRB, PDPK1, PIK3C2B, PIK3CA, PIK3CG, PIM1, PIM2, PIM3, PKAC-alpha, PLK1, PLK3, PLK4, PRKCE, PYK2, RAF1, RET, R10K2, ROCK2, RSK2, SNARK, SRC, SRPK3, SYK, TAK1, TGFBR1, TIE2, TRKA, TSSK1B, TYK2(JH1domain-catalytic), ULK2, VEGFR2, YANK3 and ZAP70.
(§2) Inhibition activity of Compound 82 was reported as percent control where lower numbers indicate stronger activities.
T5 sequence (P36888 27-993): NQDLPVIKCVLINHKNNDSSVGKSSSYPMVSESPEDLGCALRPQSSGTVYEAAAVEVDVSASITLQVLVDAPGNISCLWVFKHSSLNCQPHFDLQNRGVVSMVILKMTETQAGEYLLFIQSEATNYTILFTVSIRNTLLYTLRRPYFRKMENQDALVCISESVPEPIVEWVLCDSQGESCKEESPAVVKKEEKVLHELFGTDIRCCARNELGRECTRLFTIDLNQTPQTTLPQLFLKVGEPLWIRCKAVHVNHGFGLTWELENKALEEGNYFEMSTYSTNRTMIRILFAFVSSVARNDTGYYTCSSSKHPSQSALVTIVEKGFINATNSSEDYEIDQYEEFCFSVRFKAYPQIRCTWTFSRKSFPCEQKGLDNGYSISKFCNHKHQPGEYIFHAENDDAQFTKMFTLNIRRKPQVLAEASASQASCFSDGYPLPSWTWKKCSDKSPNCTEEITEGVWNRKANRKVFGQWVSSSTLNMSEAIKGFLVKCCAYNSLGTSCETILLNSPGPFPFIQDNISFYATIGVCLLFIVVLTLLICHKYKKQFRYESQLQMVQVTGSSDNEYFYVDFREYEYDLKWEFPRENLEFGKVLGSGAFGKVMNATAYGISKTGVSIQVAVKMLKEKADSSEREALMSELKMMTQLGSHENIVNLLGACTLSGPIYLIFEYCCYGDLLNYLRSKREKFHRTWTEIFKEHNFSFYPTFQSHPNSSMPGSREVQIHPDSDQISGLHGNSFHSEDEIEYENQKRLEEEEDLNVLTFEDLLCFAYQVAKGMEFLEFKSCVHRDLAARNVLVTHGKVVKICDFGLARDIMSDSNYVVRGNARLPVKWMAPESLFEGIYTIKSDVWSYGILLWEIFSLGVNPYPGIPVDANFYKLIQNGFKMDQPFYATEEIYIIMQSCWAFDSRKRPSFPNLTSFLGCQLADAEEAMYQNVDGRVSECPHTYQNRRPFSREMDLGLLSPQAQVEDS

[6] = target: T6, KIT (Homo sapiens, UniProt P10721); assay: as above; type: binding; details: reported as percent control, lower numbers indicate stronger activities
T6 construct: purchased Ambit Biosciences
Method: as §1, §2

[7] = target: T7, ABL1(T315I) (Homo sapiens, UniProt P00519, T315I); assay: as above; type: binding; details: reported as percent control, lower numbers indicate stronger activities
T7 construct: purchased Ambit Biosciences
Method: as §1, §2

[8] = target: T8, AURKB (Homo sapiens, UniProt Q96GD4); assay: as above; type: binding; details: reported as percent control, lower numbers indicate stronger activities
T8 construct: purchased Ambit Biosciences
Method: as §1, §2

[9] = target: JAK2 (Homo sapiens, UniProt O60674); assay: as above; type: binding; parameters: JAK2(JH1domain-catalytic); purchased Ambit Biosciences; details: reported as percent control, lower numbers indicate stronger activities
Method: as §1, §2

T6 sequence (P10721 26-976): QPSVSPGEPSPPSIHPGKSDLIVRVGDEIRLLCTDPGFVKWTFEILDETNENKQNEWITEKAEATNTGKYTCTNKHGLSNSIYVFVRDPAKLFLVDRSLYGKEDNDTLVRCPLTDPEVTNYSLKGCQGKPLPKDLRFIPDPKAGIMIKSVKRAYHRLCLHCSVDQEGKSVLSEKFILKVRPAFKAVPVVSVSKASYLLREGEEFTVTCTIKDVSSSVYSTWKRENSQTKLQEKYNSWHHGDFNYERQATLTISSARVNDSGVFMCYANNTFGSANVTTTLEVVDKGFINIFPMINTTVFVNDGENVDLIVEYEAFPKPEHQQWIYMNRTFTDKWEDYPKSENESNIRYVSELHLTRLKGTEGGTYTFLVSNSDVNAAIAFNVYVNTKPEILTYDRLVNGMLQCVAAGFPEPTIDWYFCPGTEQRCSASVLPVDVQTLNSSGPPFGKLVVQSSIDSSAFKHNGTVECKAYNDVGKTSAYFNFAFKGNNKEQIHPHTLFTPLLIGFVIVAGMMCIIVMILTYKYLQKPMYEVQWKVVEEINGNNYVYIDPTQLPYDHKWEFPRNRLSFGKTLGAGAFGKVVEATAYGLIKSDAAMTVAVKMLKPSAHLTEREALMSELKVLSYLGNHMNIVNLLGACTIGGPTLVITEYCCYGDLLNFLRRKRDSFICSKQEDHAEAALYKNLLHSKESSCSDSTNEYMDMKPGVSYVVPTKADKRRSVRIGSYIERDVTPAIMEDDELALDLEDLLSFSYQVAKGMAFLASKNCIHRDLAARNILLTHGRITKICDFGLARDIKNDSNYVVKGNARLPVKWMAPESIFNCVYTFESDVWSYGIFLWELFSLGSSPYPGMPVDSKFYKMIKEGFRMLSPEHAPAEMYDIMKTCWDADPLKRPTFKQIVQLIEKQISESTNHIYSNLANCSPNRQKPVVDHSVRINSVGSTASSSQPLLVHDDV
T2 sequence (Q05397 376-1052 limits assumed): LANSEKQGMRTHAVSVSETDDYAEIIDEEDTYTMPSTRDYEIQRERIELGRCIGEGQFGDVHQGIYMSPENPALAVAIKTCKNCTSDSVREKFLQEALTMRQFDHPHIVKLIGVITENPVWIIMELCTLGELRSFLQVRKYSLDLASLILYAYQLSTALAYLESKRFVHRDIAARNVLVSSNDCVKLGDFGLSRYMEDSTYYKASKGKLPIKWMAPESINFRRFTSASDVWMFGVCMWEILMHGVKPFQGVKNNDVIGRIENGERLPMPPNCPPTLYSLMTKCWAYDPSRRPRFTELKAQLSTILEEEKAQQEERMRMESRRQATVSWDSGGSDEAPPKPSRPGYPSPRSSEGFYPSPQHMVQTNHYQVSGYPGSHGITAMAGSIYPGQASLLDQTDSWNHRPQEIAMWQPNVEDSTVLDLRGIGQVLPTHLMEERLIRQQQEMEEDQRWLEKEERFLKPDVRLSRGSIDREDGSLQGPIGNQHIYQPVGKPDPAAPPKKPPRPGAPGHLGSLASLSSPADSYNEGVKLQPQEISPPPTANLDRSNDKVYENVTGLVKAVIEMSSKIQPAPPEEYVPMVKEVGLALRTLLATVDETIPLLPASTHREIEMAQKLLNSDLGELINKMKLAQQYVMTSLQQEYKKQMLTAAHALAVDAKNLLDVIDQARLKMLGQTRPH
T8 sequence (Q96GD4 whole entry): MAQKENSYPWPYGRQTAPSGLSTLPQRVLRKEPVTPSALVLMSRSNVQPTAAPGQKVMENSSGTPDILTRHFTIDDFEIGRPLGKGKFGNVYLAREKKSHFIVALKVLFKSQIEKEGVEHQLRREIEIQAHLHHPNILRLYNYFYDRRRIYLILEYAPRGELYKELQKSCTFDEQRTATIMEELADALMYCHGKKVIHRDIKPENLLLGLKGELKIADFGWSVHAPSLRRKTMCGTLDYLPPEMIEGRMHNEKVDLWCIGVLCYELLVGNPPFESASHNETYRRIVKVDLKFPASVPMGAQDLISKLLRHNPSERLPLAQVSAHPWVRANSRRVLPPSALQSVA
JAK2, sequence (O60674 849-1124 limits assumed): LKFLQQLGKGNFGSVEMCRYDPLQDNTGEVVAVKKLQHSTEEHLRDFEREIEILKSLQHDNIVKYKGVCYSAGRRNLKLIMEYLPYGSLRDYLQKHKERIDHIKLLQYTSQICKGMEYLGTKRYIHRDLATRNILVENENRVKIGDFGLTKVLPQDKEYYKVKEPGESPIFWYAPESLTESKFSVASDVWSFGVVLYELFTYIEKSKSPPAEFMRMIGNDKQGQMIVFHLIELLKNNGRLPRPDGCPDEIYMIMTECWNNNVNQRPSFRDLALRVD

COc1cc(Nc2ncc(C)c(-n3cc(C)c(CO)c3)n2)cc(OC)c1OC [Compound 21, (4-methyl-1-(5-methyl-2-(3,4,5-trimethoxyphenylamino)pyrimidin-4-yl)-1H-pyrrol-3-yl)methanol]
inhibition at 1 µM [1]: 96.4%
inhibition at 1 µM [2]: 70.7%
IC50 [3]: 0.0019 µM
IC50 [4]: 0.05 µM

Cc1cc(C)cc(Nc2ncc(F)c(-n3cc(C)c(CN4CC[C@@H](O)C4)c3)n2)c1 [Compound 82, (R)-1-((1-(2-(3,5-dimethylphenyl-amino)-5-fluoropyrimidin-4-yl)-4-methyl-1H-pyrrol-3-yl)methyl) pyrrolidin-3-ol]
% of control [5]: 1.1%
% of control (remaining binding) [6]: 26%
% of control ABL1(T315I) [7]: 35%
% of control binding [8]: 31%
% of control [9]: 3%

From patent US8629132B2, “Kinase inhibitors” (Genosco, priority 2009, dated 2014)
